From patent US20240247030A1, “TARGETED DELIVERY OF TERTIARY AMINE-CONTAINING DRUG SUBSTANCES” (Seagen Inc., priority 2014, published 2024)
≈ marks a conversion by molar mass, not a printed value. *1 amine or outer side, *2 acyl side, *3 side chain or, on linkers, in order; H or OH if unused. Where a SMILES comes first, the peptide text is derived from it. [ ]: non-standard residue; d: D form. The star is where a group is joined. Dolaproine = CO[C@@H]([C@@H]1CCCN1)[C@@H](C)C(=O)O; Hexanoyl(6-maleimido) = O=C1C=CC(=O)N1CCCCCC(=O)*; Dil = CC[C@H](C)[C@H](NC)[C@@H](CC(=O)O)OC; PABC = O=C(OCc1ccc(N[*:1])cc1)[*:2]; Cit = NC(=O)NCCC[C@H](N)C(=O)O; NMeV = CN[C@H](C(=O)O)C(C)C

Key:
Format in all cases: cell-based
HL60/RV MDR+ AML cells = test: In vitro cytotoxicity (CellTiter-Glo, 96 h); settings: for IC50: Homo sapiens, HL-60, 96 h, read-out: IC50, HL60/RV, MDR+ AML, Table 6, free drug, 96 hours
Description: (§1) In vitro assays. Cells cultured in log-phase growth were seeded for 24 h in 96-well plates containing 150 μL RPMI 1640 supplemented with 20% FBS. Serial dilutions of antibody-drug conjugates in cell culture media were prepared at 4× working concentrations; 50 μL of each dilution was added to the 96-well plates. Following addition of ADC, cells were incubated with test articles for 4 d at 37° C. After 96 h, growth inhibition was assessed by CellTiter-Glo™ (Promega, Madison, W1) and luminescence was measured on a plate reader. The IC50 value, determined in triplicate, is defined here as the concentration that results in a 50% reduction in cell growth relative to untreated controls.

Karpas299 ALCL cells = test: In vitro cytotoxicity (CellTiter-Glo, 96 h); settings: for IC50: Homo sapiens, KARPAS-299, 96 h, read-out: IC50, Karpas299, ALCL, Table 6, free drug, 96 hours
Description: as §1

L428 MDR+ HL cells = test: In vitro cytotoxicity (CellTiter-Glo, 96 h); settings: Homo sapiens, L-428, 96 h, read-out: IC50, L428, MDR+ HL, Table 6; free drug, 96 hours
[1] = tested on: L540cy Hodgkin lymphoma cells; test: In vitro cytotoxicity (CellTiter-Glo, 96 h); settings: for IC50: L540cy, 96 h, read-out: IC50, L540cy, HL, Table 6, free drug, 96 hours
HL60 AML cells = test: cells; settings: for IC50: Homo sapiens, HL-60, 96 h, read-out: IC50, HL60, AML, Table 6, free drug, 96 hours
Description: as §1

panel of cell lines = test: In vitro cytotoxicity, statements across a panel of cell lines
Description: as §1

DEL ALCL cells = settings: Table 11; cAC10 conjugate, 8-drugs/mAb
[2] = Table 15, cOKT-9 conjugate, 8-drugs/Ab

Row | Compound | IC50 (HL60/RV MDR+ AML cells) | IC50 (Karpas299 ALCL cells) | IC50 (L428 MDR+ HL cells) | IC50 [1] | IC50 (HL60 AML cells) | further results
1 | CCCC(=O)O[C@H](C[C@H](C(C)C)N(C)C(=O)[C@@H](NC(=O)[C@H]1CCCCN1C)[C@@H](C)CC)c1nc(C(=O)N[C@@H](Cc2ccccc2)C[C@H](C)C(=O)O)cs1 [Compound 156, (2S,4R)-4-(2-((1R,3R)-1-(butyryloxy)-3-((2S,3S)—N,3-dimethyl-2-((R)-1-methylpiperidine-2-carboxamido)pentanamido)-4-methylpentyl)thiazole-4-carboxamido)-2-methyl-5-phenylpentanoic acid] | 6 nM | 0.02 nM | 0.12 nM | 0.1 nM | 0.1 nM | 
2 | CC[C@H](C)[C@H](NC(=O)[C@H]1CCCCN1C)C(=O)N(C)[C@H](C[C@@H](OC(=O)C(C)C)c1nc(C(=O)N[C@@H](Cc2ccccc2)C[C@H](C)C(=O)O)cs1)C(C)C [Compound 157, (2S,4R)-4-(2-((1R,3R)-3-((2S,3S)—N,3-dimethyl-2-((R)-1-methylpiperidine-2-carboxamido)pentanamido)-1-(isobutyryloxy)-4-methylpentyl)thiazole-4-carboxamido)-2-methyl-S-phenylpentanoic acid] | 3 nM | 0.011 nM | 0.05 nM | 0.04 nM | 0.08 nM | 
3 | CC[C@H](C)[C@H](NC(=O)[C@H]1CCCCN1C)C(=O)N(C)[C@H](C[C@@H](OC(=O)CC(C)(C)C)c1nc(C(=O)N[C@@H](Cc2ccccc2)C[C@H](C)C(=O)O)cs1)C(C)C [Compound 159, (2S,4R)-4-(2-((1R,3R)-3-((2S,3S)—N,3-dimethyl-2-((R)-1-methylpiperidine-2-carboxamido)pentanamido)-1-((3,3-dimethylbutanoyl)oxy)-4-methylpentyl)thiazole-4-carboxamido)-2-methyl-5-phenylpentanoic acid] |  |  |  |  |  | potency loss relative to tubulysin M (panel of cell lines; free drug, across the cell lines of Table 6): 5-47 fold
4 | CC[C@H](C)[C@H](NC(=O)[C@H]1CCCCN1C(=O)CCCCCN1C(=O)C=CC1=O)C(=O)N(C)[C@H](C[C@@H](OC)c1nc(C(=O)N[C@@H](Cc2ccccc2)C[C@H](C)C(=O)O)cs1)C(C)C [Compound 172, (2S,4R)-4-(2-((1R,3R)-3-((2S,3S)-2-((R)-1-(6-(2,5-dioxo-2,5-dihydro-1H-pyrrol-1-yl)hexanoyl)piperidine-2-carboxamido)-N,3-dimethylpentanamido)-1-methoxy-4-methylpentyl)thiazole-4-carboxamido)-2-methyl-5-phenylpentanoic acid] |  |  |  |  |  | IC50, Karpas299, ALCL (Karpas299 ALCL cells; Table 11, cAC10 conjugate of the Drug-Linker, 8-drugs/mAb): >1 µg/mL; cytotoxic activity in words, conjugates on CD30+ lymphoma cell lines (panel of cell lines; conjugate of the named Drug Linker or named ADC): inactive; IC50, DEL, ALCL (DEL ALCL cells): >1 µg/mL; IC50, L540cy, HL ([1]; Table 11, cAC10 conjugate, 8-drugs/mAb): >1 µg/mL
5 | CC[C@H](C)[C@@H]([C@@H](CC(=O)N1CCC[C@H]1[C@H](OC)[C@@H](C)C(=O)N[C@@H](Cc1ccccc1)C(=O)O)OC)N(C)C(=O)[C@@H](NC(=O)[C@H](C(C)C)N(C)C(=O)OCc1ccc(NC(=O)[C@H](CCCNC(N)=O)NC(=O)[C@@H](NC(=O)CCCCCN2C(=O)C=CC2=O)C(C)C)cc1)C(C)C [Compound 193, MC-Val-Cit-PABC-MMAF, reference compound] ({Hexanoyl(6-maleimido)}-V[Cit][PABC][NMeV]V[Dil][Dolaproine]F-OH) |  |  |  |  |  | IC50, HL60/RV, MDR+ AML (HL60/RV MDR+ AML cells; [2]): 0.015 µg/mL (≈ 0.0113 µM); IC50, HL60, AML (HL60 AML cells; [2]): 0.033 µg/mL (≈ 0.0248 µM)
